{"source": "paper PMC11324126", "about": "“Novel coumarin-6-sulfonamide-chalcone hybrids as glutathione transferase P1-1 inhibitors” (PLOS ONE, 2024)", "key": {"[1]": {"target": "T1, hGSTP1-1 (Homo sapiens, UniProt P09211)", "T1 construct": "made in house; host or cells: E. coli", "T1 sequence (P09211 whole entry)": "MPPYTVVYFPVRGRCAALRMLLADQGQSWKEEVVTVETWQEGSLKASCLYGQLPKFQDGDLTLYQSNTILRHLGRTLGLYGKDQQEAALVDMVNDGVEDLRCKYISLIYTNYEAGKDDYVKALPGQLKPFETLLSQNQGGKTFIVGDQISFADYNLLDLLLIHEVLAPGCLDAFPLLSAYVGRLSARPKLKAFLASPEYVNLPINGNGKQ", "assay": "hGSTP1-1 enzyme activity/inhibition assay (CDNB and GSH substrates, 340 nm)", "assay_type": "biochemical", "parameters": "key to Enzyme Inhibition (%) (symbol): *: Coumarin derivative 5e did not exhibit significant inhibition", "conditions": "for Enzyme Inhibition (%) / IC50 / inhibition at 10 µM: mean ± SE, triplicate; for IC50: concentration-response inhibition, read-out: IC50 towards hGSTP1-1; for inhibition at 10 µM: pH 6.5, 10 μM compound", "experimental": "Determination of hGSTP1-1 activity was carried out in potassium phosphate buffer (100 mM, pH 6.5, 1 mL total volume), at 25°C using as substrates CDNB and GSH. The reaction was monitoring at 340 nm for 120 s, as described previously. For inhibition analysis, coumarin derivatives were dissolved in DMSO (100 μΜ) and added to the assay mixture at 10 μΜ final concentration. The mixture was incubated at 25°C for 1 min, prior adding the enzyme sample. The IC50 values were determined from a graph of the remaining GST activity (%) against inhibitor concentration. GraphPad Prism 9.3.1 (GraphPad Prism Software, Inc.) was used for determination of IC50 values. Kinetic inhibition analysis was performed as previously described with minor modifications. Initial velocities using CDNB as a variable substrate (typically 14–1000 μM) were determined in the presence of constant concentration of GSH (2.5 mM) in the absence and presence of the coumarin derivative 5g (0–50 μM). Initial velocities using GSH as a variable substrate (typically 37.5–3750 μΜ) were determined in the presence of 1 mM CDNB in the absence and presence of the coumarin derivative 5g (0–50 μM). Enzyme assays were performed in triplicates and initial velocities were corrected for spontaneous reaction rates."}, "[2]": {"assay": "MTT cytotoxicity assay, DU-145", "assay_type": "cell-based", "conditions": "human, DU-145 cells, mean ± SE, triplicate, read-out: CC50 against DU-145", "experimental": "(§1) The MTT colorimetric assay was used to evaluate the in vitro cytotoxicity of 5a, 5f and 5g coumarin derivatives against PC3, DU-145 and MCF-7 cancer cell lines. Cancer cells were inoculated into a 96-well plate (initially at a density of 8 x 10^3 cells/well in 100 μL of culture medium) and were cultivated for 24 h, at 37°C in a CO2 incubator (5%). Different concentrations of 5a, 5f and 5g derivatives (1.5 μΜ to 200 μΜ), were added to cultures and incubated for 48 h. […] The culture medium was then replaced with 100 μL of MTT solution (1 mg/mL) and after 2 h incubation, the solution was aspirated and the produced formazan crystals were dissolved in isopropanol (100 μL). The absorbance was measured at 540 nm. Dose–cell viability graphs were created using GraphPad Prism 9.3.1 and the CC50 values were determined."}, "[3]": {"assay": "MTT cytotoxicity assay, PC3", "assay_type": "cell-based", "conditions": "human, PC3 cells, mean ± SE, triplicate, read-out: CC50 against PC3", "experimental": "as §1"}, "[4]": {"assay": "MTT cytotoxicity assay, MCF-7", "assay_type": "cell-based", "conditions": "human, MCF-7 cells, mean ± SE, triplicate, read-out: CC50 against MCF-7", "experimental": "as §1"}, "[5]": {"target": "T1, hGSTP1-1", "parameters": "method as in doi:10.5505/tjb.2012.30301", "conditions": "cited from earlier work"}, "[6]": {"system": "HepG2 cells", "parameters": "method as in PMID 29944015", "conditions": "read-out: IC50 towards HepG2 cells; cited from earlier work"}, "[7]": {"conditions": "10 μM compound, 25°C, pH 6.5, 10 µM"}}, "note": "“Also recorded” adds a separate entry of the source. Read-outs that look alike come from different tables or passages of the source."}
{"compound": "O=C(C=Cc1ccccc1)c1ccc(NS(=O)(=O)c2ccc3oc(=O)ccc3c2)cc1", "note": "[Compound 5a, N-(4-cinnamoylphenyl)-2-oxo-2H-chromene-6-sulfonamide]", "values": [{"measurement": "Enzyme Inhibition (%)", "setting": "[1]; [7]", "value": "84.6 ± 0.1", "unit": "%"}, {"measurement": "IC50", "setting": "[1]", "value": 16.3, "unit": "µM"}, {"measurement": "inhibition at 10 µM", "setting": "[1]; 25°C, pH 6.5", "value": "> 85", "unit": "%"}, {"measurement": "CC50 at 48 h", "setting": "[2]", "value": "71.4 ± 5.4", "unit": "µM"}, {"measurement": "CC50 at 48 h", "setting": "[3]", "value": "25.3 ± 2.2", "unit": "µM"}, {"measurement": "CC50 at 48 h", "setting": "[4]", "value": "46.8 ± 5.1", "unit": "µM"}]}
{"compound": "Cc1ccc(C=CC(=O)c2ccc(NS(=O)(=O)c3ccc4oc(=O)ccc4c3)cc2)cc1", "note": "[Compound 5b, 2-oxo-N-(4-(3-(p-tolyl)acryloyl)phenyl)-2H-chromene-6-sulfonamide]", "values": [{"measurement": "inhibition at 10 µM", "setting": "[1]; 25°C, pH 6.5", "value": "62.8 ± 0.1", "unit": "%"}]}
{"compound": "COc1ccc(C=CC(=O)c2ccc(NS(=O)(=O)c3ccc4oc(=O)ccc4c3)cc2)cc1", "note": "[Compound 5c, N-(4-(3-(4-methoxyphenyl)acryloyl)phenyl)-2-oxo-2H-chromene-6-sulfonamide]", "values": [{"measurement": "inhibition at 10 µM", "setting": "[1]; 25°C, pH 6.5", "value": 67, "unit": "%"}]}
{"compound": "COc1ccc(C=CC(=O)c2ccc(NS(=O)(=O)c3ccc4oc(=O)ccc4c3)cc2)c(OC)c1", "note": "[Compound 5d, N-(4-(3-(2,4-dimethoxyphenyl)acryloyl)phenyl)-2-oxo-2H-chromene-6-sulfonamide]", "values": [{"measurement": "inhibition at 10 µM", "setting": "[1]; 25°C, pH 6.5", "value": "59.3 ± 0.1", "unit": "%"}]}
{"compound": "COc1cc(C=CC(=O)c2ccc(NS(=O)(=O)c3ccc4oc(=O)ccc4c3)cc2)cc(OC)c1OC", "note": "[Compound 5e, 2-oxo-N-(4-(3-(3,4,5-trimethoxyphenyl)acryloyl)phenyl)-2H-chromene-6-sulfonamide]", "values": [{"measurement": "Enzyme Inhibition (%) (symbol)", "setting": "[1]; 10 μM compound, 25°C, pH 6.5", "value": "*"}, {"measurement": "Enzyme Inhibition (%)", "setting": "[1]; 10 μM compound, 25°C, pH 6.5", "value": "no activity"}]}
{"compound": "O=C(C=Cc1ccc(F)cc1)c1ccc(NS(=O)(=O)c2ccc3oc(=O)ccc3c2)cc1", "note": "[Compound 5f, N-(4-(3-(4-fluorophenyl)acryloyl)phenyl)-2-oxo-2H-chromene-6-sulfonamide]", "values": [{"measurement": "Enzyme Inhibition (%)", "setting": "[1]; [7]", "value": "86.9 ± 0.0", "unit": "%"}, {"measurement": "IC50", "setting": "[1]", "value": "12.7 ± 0.7", "unit": "µM"}, {"measurement": "inhibition at 10 µM", "setting": "[1]; 25°C, pH 6.5", "value": "> 85", "unit": "%"}, {"measurement": "CC50 at 48 h", "setting": "[2]", "value": "47.3 ± 2.7", "unit": "µM"}, {"measurement": "CC50 at 48 h", "setting": "[3]", "value": "14.7 ± 0.9", "unit": "µM"}, {"measurement": "CC50 at 48 h", "setting": "[4]", "value": "24.7 ± 1.5", "unit": "µM"}]}
{"compound": "O=C(C=Cc1ccc(Cl)cc1)c1ccc(NS(=O)(=O)c2ccc3oc(=O)ccc3c2)cc1", "note": "[Compound 5g, N-(4-(3-(4-chlorophenyl)acryloyl)phenyl)-2-oxo-2H-chromene-6-sulfonamide]", "values": [{"measurement": "Enzyme Inhibition (%)", "setting": "[1]; [7]", "value": "87.5 ± 0.0", "unit": "%"}, {"measurement": "inhibition constant Ki΄ (hGSTP1-1–CDNB complex)", "setting": "[1]; CDNB as variable substrate", "value": "19.25 ± 1.20", "unit": "μΜ"}, {"measurement": "Ki", "setting": "[1]; CDNB as variable substrate, read-out: inhibition constant Ki (free hGSTP1-1)", "value": "4.69 ± 0.11", "unit": "µM"}, {"measurement": "inhibition constant Ki΄", "setting": "[1]; GSH as variable substrate", "value": "25.39 ± 0.60", "unit": "μΜ"}, {"measurement": "Ki", "setting": "[1]; GSH as variable substrate, read-out: inhibition constant Ki", "value": "3.82 ± 0.16", "unit": "µM"}, {"measurement": "IC50", "setting": "[1]", "value": "12.2 ± 0.5", "unit": "µM"}, {"measurement": "type of inhibition", "setting": "[1]; kinetic inhibition analysis, Lineweaver-Burk", "value": "mixed-type inhibitor; also recorded: non-competitive, purely mixed-type inhibitor"}, {"measurement": "inhibition at 10 µM", "setting": "[1]; 25°C, pH 6.5", "value": "> 85", "unit": "%"}, {"measurement": "CC50 at 48 h", "setting": "[2]", "value": "36.6 ± 2.7", "unit": "µM"}, {"measurement": "CC50 at 48 h", "setting": "[3]", "value": "11.9 ± 2.5", "unit": "µM"}, {"measurement": "CC50 at 48 h", "setting": "[4]", "value": "17.4 ± 2.9", "unit": "µM"}]}
{"compound": "O=C(C=Cc1ccc(Br)cc1)c1ccc(NS(=O)(=O)c2ccc3oc(=O)ccc3c2)cc1", "note": "[Compound 5h, N-(4-(3-(4-bromophenyl)acryloyl)phenyl)-2-oxo-2H-chromene-6-sulfonamide]", "values": [{"measurement": "inhibition at 10 µM", "setting": "[1]; 25°C, pH 6.5", "value": "71.1 ± 0.1", "unit": "%"}]}
{"compound": "O=C(C=Cc1ccc([N+](=O)[O-])cc1)c1ccc(NS(=O)(=O)c2ccc3oc(=O)ccc3c2)cc1", "note": "[Compound 5i, N-(4-(3-(4-nitrophenyl)acryloyl)phenyl)-2-oxo-2H-chromene-6-sulfonamide]", "values": [{"measurement": "inhibition at 10 µM", "setting": "[1]; 25°C, pH 6.5", "value": "45.4 ± 0.1", "unit": "%"}]}
{"compound": "O=[N+]([O-])c1ccc(S(=O)(=O)Nc2ccc3c(c2)CC(Cc2ccc(Cl)cc2)=C3)cc1", "note": "[compound III]", "values": [{"measurement": "IC50", "setting": "[5]", "value": 10.2, "unit": "µM"}]}
{"compound": "C/C(=N\\Nc1nc(-c2ccccc2)cs1)c1ccc(NS(=O)(=O)c2ccc3oc(=O)ccc3c2)cc1", "note": "[compound II]", "values": [{"measurement": "IC50", "setting": "[6]", "value": "3.48 ± 0.28", "unit": "µM"}]}
